Source: ChEMBL document CHEMBL5034010, “Novel Cephalosporin Conjugates Display Potent and Selective Inhibition of Imipenemase-Type Metallo-β-Lactamases” (J Med Chem, 2021)
In brackets after ≈: the same amount, converted by molar mass. Activity calls are given as the source filed them. No cut-off for these calls is given here.

Columns and labels:
[1] = system: Enterobacter cloacae; test: Inhibition of Metallo-beta-lactamase IMP-1 in Enterobacter cloacae clinical isolate assessed as MIC for meropenem antibacterial activity at 32 ug/ml (Rvb =16 ug/ml); settings: dose 32.0 µg/ml
[2] = system: Enterobacter cloacae; test: Inhibition of Metallo-beta-lactamase IMP-1 in Enterobacter cloacae clinical isolate assessed as MIC for meropenem antibacterial activity at 64 ug/ml (Rvb =16 ug/ml); settings: dose 64.0 µg/ml
[3] = system: Enterobacter cloacae; test: Inhibition of Metallo-beta-lactamase IMP-1 in Enterobacter cloacae clinical isolate assessed as MIC for meropenem antibacterial activity at 128 ug/ml (Rvb =16 ug/ml); settings: dose 128.0 µg/ml
[4] = system: Escherichia coli; test: Inhibition of Metallo-beta-lactamase NDM-1 in Escherichia coli clinical isolate assessed as MIC for meropenem antibacterial activity at 32 ug/ml (reference value: 32 ug/ml); settings: dose 32.0 µg/ml
[5] = system: Escherichia coli; test: Inhibition of Metallo-beta-lactamase NDM-1 in Escherichia coli clinical isolate assessed as MIC for meropenem antibacterial activity at 64 ug/ml (reference value: 32 ug/ml); settings: dose 64.0 µg/ml
[6] = system: Escherichia coli; test: Inhibition of Metallo-beta-lactamase NDM-1 in Escherichia coli clinical isolate assessed as MIC for meropenem antibacterial activity at 128 ug/ml (reference value: 32 ug/ml); settings: dose 128.0 µg/ml
[7] = system: Klebsiella pneumoniae; test: Inhibition of Metallo-beta-lactamase IMP-28 in Klebsiella pneumoniae clinical isolate assessed as MIC for meropenem antibacterial activity at 32 ug/ml (reference value: 2 ug/ml); settings: dose 32.0 µg/ml
[8] = system: Klebsiella pneumoniae; test: Inhibition of Metallo-beta-lactamase IMP-28 in Klebsiella pneumoniae clinical isolate assessed as MIC for meropenem antibacterial activity at 64 ug/ml (reference value: 2 ug/ml); settings: dose 64.0 µg/ml
[9] = system: Klebsiella pneumoniae; test: Inhibition of Metallo-beta-lactamase IMP-28 in Klebsiella pneumoniae clinical isolate assessed as MIC for meropenem antibacterial activity at 128 ug/ml (reference value: 2 ug/ml); settings: dose 128.0 µg/ml
[10] = system: Escherichia coli; test: Inhibition of Metallo-beta-lactamase VIM-2 in Escherichia coli clinical isolate assessed as MIC for meropenem antibacterial activity at 32 ug/ml (reference value: 4 ug/ml); settings: dose 32.0 µg/ml
[11] = system: Escherichia coli; test: Inhibition of Metallo-beta-lactamase VIM-2 in Escherichia coli clinical isolate assessed as MIC for meropenem antibacterial activity at 64 ug/ml (reference value: 4 ug/ml); settings: dose 64.0 µg/ml
[12] = system: Escherichia coli; test: Inhibition of Metallo-beta-lactamase VIM-2 in Escherichia coli clinical isolate assessed as MIC for meropenem antibacterial activity at 128 ug/ml (reference value: 4 ug/ml); settings: dose 128.0 µg/ml
[13] = system: Enterobacter cloacae; test: Antibacterial activity against beta-lactamase IMP1 producing Enterobacter cloacae clinical isolate measured upto 128 ug/ml; format: functional, organism-based
[14] = system: Klebsiella pneumoniae; test: Antibacterial activity against beta-lactamase IMP-28 producing Klebsiella pneumoniae clinical isolate measured upto 128 ug/ml; format: functional, organism-based
[15] = system: Escherichia coli; test: Antibacterial activity against beta-lactamase VIM2 producing Escherichia coli clinical isolate measured upto 128 ug/ml; format: functional, organism-based
[16] = Inhibition of Enterobacter cloacae IMP-1 using nitrocefin chromogenic substrate measured after 15 to 60 min at 25 degC by microplate reader
[17] = Inhibition of Klebsiella pneumoniae beta-lactamase IMP-28 using nitrocefin chromogenic substrate measured after 15 to 60 min at 25 degC by microplate reader
[18] = Inhibition of Escherichia coli beta-lactamase VIM-2 using nitrocefin chromogenic substrate measured after 15 to 60 min at 25 degC by microplate reader
[19] = system: Klebsiella pneumoniae; test: Substrate activity at Klebsiella pneumoniae beta-lactamase IMP-28 assessed as compound hydrolysis by measuring Km by Michaelis-Menten analysis
[20] = system: Klebsiella pneumoniae; test: Substrate activity at Klebsiella pneumoniae beta-lactamase IMP-28 assessed as compound hydrolysis by measuring Kcat by Michaelis-Menten analysis
[21] = system: Klebsiella pneumoniae; test: Substrate activity at Klebsiella pneumoniae beta-lactamase IMP-28 assessed as compound hydrolysis by measuring Kcat/Km by Michaelis-Menten analysis
[22] = system: Enterobacter cloacae; test: Inhibition of Metallo-beta-lactamase IMP-1 in Enterobacter cloacae clinical isolate assessed as fold reduction in meropenem MIC at 32 ug/ml; settings: dose 32.0 µg/ml
[23] = system: Enterobacter cloacae; test: Inhibition of Metallo-beta-lactamase IMP-1 in Enterobacter cloacae clinical isolate assessed as fold reduction in meropenem MIC at 64 ug/ml; settings: dose 64.0 µg/ml
[24] = system: Enterobacter cloacae; test: Inhibition of Metallo-beta-lactamase IMP-1 in Enterobacter cloacae clinical isolate assessed as fold reduction in meropenem MIC at 128 ug/ml; settings: dose 128.0 µg/ml
[25] = system: Klebsiella pneumoniae; test: Inhibition of Metallo-beta-lactamase IMP-28 in Klebsiella pneumoniae clinical isolate assessed as fold reduction in meropenem MIC at 32 ug/ml; settings: dose 32.0 µg/ml
[26] = system: Klebsiella pneumoniae; test: Inhibition of Metallo-beta-lactamase IMP-28 in Klebsiella pneumoniae clinical isolate assessed as fold reduction in meropenem MIC at 64 ug/ml; settings: dose 64.0 µg/ml
[27] = system: Klebsiella pneumoniae; test: Inhibition of Metallo-beta-lactamase IMP-28 in Klebsiella pneumoniae clinical isolate assessed as fold reduction in meropenem MIC at 128 ug/ml; settings: dose 128.0 µg/ml
[28] = system: Escherichia coli; test: Inhibition of Metallo-beta-lactamase VIM-2 in Escherichia coli clinical isolate assessed as fold reduction in meropenem MIC at 32 ug/ml; settings: dose 32.0 µg/ml
[29] = system: Escherichia coli; test: Inhibition of Metallo-beta-lactamase VIM-2 in Escherichia coli clinical isolate assessed as fold reduction in meropenem MIC at 64 ug/ml; settings: dose 64.0 µg/ml
[30] = system: Escherichia coli; test: Inhibition of Metallo-beta-lactamase VIM-2 in Escherichia coli clinical isolate assessed as fold reduction in meropenem MIC at 128 ug/ml; settings: dose 128.0 µg/ml
[31] = system: Escherichia coli; test: Inhibition of Metallo-beta-lactamase NDM-1 in Escherichia coli clinical isolate assessed as fold reduction in meropenem MIC at 32 ug/ml; settings: dose 32.0 µg/ml
[32] = system: Escherichia coli; test: Inhibition of Metallo-beta-lactamase NDM-1 in Escherichia coli clinical isolate assessed as fold reduction in meropenem MIC at 64 ug/ml; settings: dose 64.0 µg/ml
[33] = system: Escherichia coli; test: Inhibition of Metallo-beta-lactamase NDM-1 in Escherichia coli clinical isolate assessed as fold reduction in meropenem MIC at 128 ug/ml; settings: dose 128.0 µg/ml
[34] = system: Escherichia coli; test: Antibacterial activity against beta-lactamase NDM1 producing Escherichia coli clinical isolate measured upto 128 ug/ml; format: functional, organism-based
[35] = Inhibition of Escherichia coli beta-lactamase NDM-1 using nitrocefin chromogenic substrate measured after 15 to 60 min at 25 degC by microplate reader
[36] = system: Enterobacter cloacae; test: Inhibition of Metallo-beta-lactamase IMP-1 in Enterobacter cloacae clinical isolate assessed as MIC for meropenem antibacterial activity at 32 ug/ml (reference value: 32 ug/ml); settings: dose 32.0 µg/ml
[37] = system: Enterobacter cloacae; test: Inhibition of Metallo-beta-lactamase IMP-1 in Enterobacter cloacae clinical isolate assessed as MIC for meropenem antibacterial activity at 64 ug/ml (reference value: 32 ug/ml); settings: dose 64.0 µg/ml
[38] = system: Enterobacter cloacae; test: Inhibition of Metallo-beta-lactamase IMP-1 in Enterobacter cloacae clinical isolate assessed as MIC for meropenem antibacterial activity at 128 ug/ml (reference value: 32 ug/ml); settings: dose 128.0 µg/ml

| Structure (SMILES) | MIC [4] | MIC [5] | MIC [6] | MIC [7] | MIC [8] | MIC [9] | MIC [10] | MIC [11] | MIC [12] | IC50 [18] | fold change (FC) [22] | fold change (FC) [23] | fold change (FC) [24] | fold change (FC) [25] | fold change (FC) [26] | fold change (FC) [27] | fold change (FC) [28] | fold change (FC) [29] | fold change (FC) [30] | fold change (FC) [31] | other results |
| --- | --- | --- | --- | --- | --- | --- | --- | --- | --- | --- | --- | --- | --- | --- | --- | --- | --- | --- | --- | --- | --- |
| CC1=C(C(=O)O)N2C(=O)[C@@H](NC(=O)Cc3ccccc3)[C@H]2SC1 | 16 µg/mL (≈ 48.1 µM) | 16 µg/mL (≈ 48.1 µM) | 16 µg/mL (≈ 48.1 µM) | 1 µg/mL (≈ 3.01 µM) | 0.5 µg/mL (≈ 1.5 µM) | 0.25 µg/mL (≈ 0.752 µM) | 2 µg/mL (≈ 6.02 µM) | 2 µg/mL (≈ 6.02 µM) | 1 µg/mL (≈ 3.01 µM) | 57 µM | 1 | 1 | 1 | 2 | 4 | 8 | 2 | 2 | 4 | 2 | MIC [1]: 16 µg/mL (≈ 48.1 µM); MIC [2]: 16 µg/mL (≈ 48.1 µM); MIC [3]: 16 µg/mL (≈ 48.1 µM); Activity [13]: inactive; Activity [14]: inactive; Activity [15]: inactive; IC50 [16]: > 100 µM; IC50 [17]: > 100 µM; Km [19]: 392 µM; kcat [20]: 23.3 s⁻¹; kcat/Km [21]: 59000 M⁻¹ s⁻¹; fold change (FC) [32]: 2; fold change (FC) [33]: 2; Activity [34]: inactive |
| O=C(O)CSCC1=C(C(=O)O)N2C(=O)[C@@H](NC(=O)Cc3ccccc3)[C@H]2SC1 | 16 µg/mL (≈ 37.9 µM) | 16 µg/mL (≈ 37.9 µM) | 8 µg/mL (≈ 18.9 µM) | 0.25 µg/mL (≈ 0.592 µM) | 0.25 µg/mL (≈ 0.592 µM) | 0.125 µg/mL (≈ 0.296 µM) | 2 µg/mL (≈ 4.73 µM) | 2 µg/mL (≈ 4.73 µM) | 1 µg/mL (≈ 2.37 µM) | 53 µM | 2 | 2 | 4 | 8 | 8 | 16 | 2 | 2 | 4 | 2 | MIC [1]: 8 µg/mL (≈ 18.9 µM); MIC [2]: 8 µg/mL (≈ 18.9 µM); MIC [3]: 4 µg/mL (≈ 9.47 µM); Activity [13]: inactive; Activity [14]: inactive; Activity [15]: inactive; IC50 [16]: > 100 µM; IC50 [17]: > 100 µM; IC50 [35]: 72 µM; Km [19]: 219 µM; kcat [20]: 37 s⁻¹; kcat/Km [21]: 169000 M⁻¹ s⁻¹; fold change (FC) [32]: 2; fold change (FC) [33]: 4; Activity [34]: inactive |
| O=C(Cc1ccccc1)N[C@@H]1C(=O)N2C(C(=O)O)=C(CSCc3ccccc3)CS[C@H]12 | 16 µg/mL (≈ 35.2 µM) | 16 µg/mL (≈ 35.2 µM) | 16 µg/mL (≈ 35.2 µM) | 0.5 µg/mL (≈ 1.1 µM) | 0.25 µg/mL (≈ 0.55 µM) | 0.25 µg/mL (≈ 0.55 µM) | 2 µg/mL (≈ 4.4 µM) | 2 µg/mL (≈ 4.4 µM) | 1 µg/mL (≈ 2.2 µM) | 73 µM | 4 | 4 | 8 | 4 | 8 | 8 | 2 | 2 | 4 | 2 | MIC [36]: 8 µg/mL (≈ 17.6 µM); MIC [37]: 8 µg/mL (≈ 17.6 µM); MIC [38]: 4 µg/mL (≈ 8.8 µM); Activity [13]: inactive; Activity [14]: inactive; Activity [15]: inactive; IC50 [16]: 43 µM; IC50 [17]: 45 µM; Km [19]: 20.5 µM; kcat [20]: 10.8 s⁻¹; kcat/Km [21]: 529000 M⁻¹ s⁻¹; fold change (FC) [32]: 2; fold change (FC) [33]: 2; Activity [34]: inactive |
| O=C(O)c1cccc(C(=O)O)n1 [DIPICOLINIC ACID] | 0.5 µg/mL (≈ 2.99 µM) | 0.5 µg/mL (≈ 2.99 µM) | < 0.5 µg/mL | 0.125 µg/mL (≈ 0.748 µM) | < 0.031 µg/mL | < 0.031 µg/mL | < 0.063 µg/mL | < 0.063 µg/mL | < 0.063 µg/mL | 10 µM | 2 | 32 | 128 | 16 | > 64 | > 64 | > 64 | > 64 | > 64 | 64 | MIC [36]: 16 µg/mL (≈ 95.7 µM); MIC [37]: 1 µg/mL (≈ 5.98 µM); MIC [38]: 0.25 µg/mL (≈ 1.5 µM); IC50 [35]: 10 µM; fold change (FC) [32]: 64; fold change (FC) [33]: > 64 |
